Test results as given in patent US4661482A, “Use of pyrazolobenzoxazines in method of treating cerebral senescence and cerebral hypoxin” (Roussel Uclaf, priority 1985, dated 1987).

Experiments:
[1] = Determination of hypotensive activity (carotidien arterial pressure, anesthetised rats); type: in vivo, male rats of WISTAR strain; conditions: vs initial control pressure
Procedure: The hypotensive activity was studied on male rats of WISTAR strain weighing about 300 g and anesthetised with nembutal (50 mg/kg by intraperitoneal route). The test product was administered intravenously into the jugular vein and the carotidien arterial pressure was measured before and after administration of the product. The following table reports the variations expressed in percentages of the arterial pressure after administration of the product in relation to the initial control arterial pressure.

[2] = Test of hypobare anoxemia (antianoxic activity); type: in vivo, male mice; conditions: head: orally, text: sub-cutaneously, 90 mm of Hg
Procedure: A--Test of hypobare anoxemia:
Male mice weighing 20-22 g, having fasted for 5 hours, were divided into groups of 10 animals and the test product was administered to the animals sub-cutaneously. Fifteen minutes after administration of the product, the animals were placed in a 2 liter dessicator in which the pressure was brought rapidly to 90 mm of Hg by a pump, and their time of survival was noted expressed in seconds. The increase of the survival time was recorded expressed as a percentage of the animals treated in relation to the control animals submitted to the same conditions.

dopaminergic receptors [3] = experiment: Rotation behavior after unilateral lesion of the nigra-striated bundle by 6-hydroxydopamine; type: in vivo, male rats; conditions: intraperitoneal; rats, groups of 8; starting dose
Procedure: Male rats of 220 g were injured in the nigra-striated dopaminergic bundle according to Ungerstedt's method [Ungerstedt, Acta physiol. Scand. (1971) Vol. 82, suppl. 367.69-93], modified by unilateral injection of 9.2 μg of 6-hydroxydopamine hydrochloride in solution in 4 μl of physiological solution containing 0.5 mg/ml of ascorbic acid. […] It therefore caused an agonistic action on the dopaminergic receptors at the central level.

dopaminergic receptors [4] = experiment: Stereotype behavior; type: in vivo, male rats; conditions: intraperitoneal; rats, groups of 5; observed every half hour over 5 hours; starting dose
Procedure: The tests were carried out on groups of 5 male rats weighing 150 to 180 g and each animal was placed individually in a barred cage (29×25×17 cm) containing a few wood shaving. The test product was administered intraperitoneally and the behavior of the animals was noted every half hour over 5 hours with the rating recommended by HALLIWELL et al. [Brit. J. Pharmacol. (1964), Vol. 23, p. 330-350]. The animal was asleep (0), it was awake but immobile (1), it turned in the cage (2), it sniffed the cover (3), it licked the walls (4), it touched the wood shavings or the bars of the cage with its teeth (5), it bit the shavings or the bars of the cage (6).
The total is determined of the scores per group taken at different times after administrationof the product studied.

[5] = Determination of antihypertensive activity (spontaneously hypertensive rats); type: in vivo, spontaneously hypertensive male rats of the OKAMOTO strain; conditions: 0.5 mg/kg orally; one hour after administration
Procedure: The anithypertensive activity was studied on spontaneously hypertensive male rats of the OKAMOTO strain aged 20 weeks and weighing 300 to 320 g. The product was administered orally 48 hours after the positioning of an intracarotidien catheter to measure the arterial pressure. The pressure was measured before and 1 hour after administration of the product. For the product of Example 3, at a dose of 0.5 mg/kg the variation in percentage of arterial pressure after administration of the product in relation to the initial control pressure was -15% one hour after administration.

cerebral neuronal cells = experiment: enolase test (brain deprived of blood by ligature of the arteries); type: in vivo; conditions: Rattus norvegicus, ip; intraperitoneal; rats; read-out: dose to which the releasing of enolase is diminished
Procedure: Suffering cerebral neuronal cells release enolase and the test was carried out on rats whose brain had been totally deprived of blood by ligature of the arteries supplying the brain. The product of Example 3 administered intraperitoneally diminished the releasing of enolase to a dose of 0.1 mg/kg. Therefore it was considered that it protected the cerebral cells against ischemia.

Acute toxicity (LD0) = type: in vivo; conditions: oral, mice
Procedure: The lethal dose LD0 of the product of Example 3 was evaluated after oral administration to mice. LD0 is the maximum dose not causing any mortality in 8 days.

Row | Compound | % Variation of arterial pressure, 5 minutes after administration ([1]; 0.01 mg/kg intravenous) [%] | % Variation of arterial pressure, 30 minutes after administration ([1]; 0.01 mg/kg intravenous) [%] | % Variation of arterial pressure, 5 minutes after administration ([1]; 0.1 mg/kg intravenous) [%] | % Variation of arterial pressure, 30 minutes after administration ([1]; 0.1 mg/kg intravenous) [%] | Increase in survival time ([2]; 1 mg/kg) | dose from which rotations contra-lateral to the injured side are caused (dopaminergic receptors [3]) [mg/kg] | dose from which stereotype movements are caused (dopaminergic receptors [4]) [mg/kg] | variation in percentage of arterial pressure in relation to the initial control pressure [5] [%] | Increase in survival time ([2]; 0.01 mg/kg) | Increase in survival time ([2]; 0.1 mg/kg) | minimal effective dose (cerebral neuronal cells) [mg/kg] | LD0 (maximum dose not causing any mortality in 8 days) (Acute toxicity (LD0)) [mg/kg]
1 | 4a RS (4aα,7α,8aβ)-7-methylthiomethyl-2,4,4a,5,6,7,8a,9-octahydro-5-propylpyrazolo-[3,4-g]-1,4-benzoxazine hydrochloride [Example 4] | -5 | -5 | -21 | -17 | +32% |  |  |  |  |  |  | 
2 | CCCN1CCO[C@@H]2Cc3n[nH]cc3C[C@H]21 (relative stereo) [Example 3, [4a SR trans]-5-propyl-2,4,4a,5,6,7,8a,9-octahydro-pyrazolo-[4,3-g]-1,4-benzoxazine] | -19 | -8 | -26 | -21 |  | 0.05 | 0.1 | -15 | +37% | +90% | 0.1 | ≥ 200
